# According to patent US10376520B2, “Methods for the treatment of cardiovascular disorders” (Galapagos NV, priority 2015, dated 2019):
# Assays:
# Type in all cases: in vivo, human
# RA patients [1] = assay: CRP analysis (immunoturbidimetric assay), Study 2; conditions: 50 mg q.d.
# Method: Double-blind, placebo-controlled, monotherapy study in subjects with moderately to severely active RA who have an inadequate response to methotrexate (MTX) (oral or parenteral).
# Twelve weeks of treatment with Compound 1 (dosed as a [Compound 1:HCl:3H2O]) at 50 mg, 100 mg, or 200 mg q.d.; or placebo. At Week 12, all subjects on placebo and the subjects on the 50 mg dose who have not achieved 20% improvement in swollen joint count (SJC66) and tender joint count (TJC68) will be assigned to 100 mg q.d. in a blinded fashion and will continue treatment until Week 24. Subjects in the other groups will maintain their randomized treatment until Week 24.
# The determination of CRP is made using Immunoturbidimetric assay for the in vitro quantitative determination of CRP in human serum and plasma on Roche/Hitachi cobas c systems, wherein human CRP agglutinates with latex particles coated with monoclonal anti-CRP antibodies. The aggregates are determined turbidimetrically (Eda et al., 1998; Price et al., 1987).
# Human serum and plasma samples [CRP] determination was done on a Roche/Hitachi Cobas c 301 c 501/502 system which automatically calculate the analyte concentration of each sample. Samples containing precipitates are centrifuged before performing the assay.
# The Hommel-corrected p-value for the pairwise comparisons of each group with placebo is shown. […]
# RA patients [2] = assay: ApoA-I level (Selectra autoanalyzer), Study 4; conditions: for ApoA-I level, 4 weeks CFB: 4 weeks change from baseline
# Method: (§1) Randomized double-blind, placebo-controlled add on study in subjects with active RA who have an inadequate response to MTX monotherapy, in combination with methotrexate, administered for 4 weeks in the treatment of subjects with active rheumatoid arthritis who have an inadequate response to methotrexate alone.
# (§2) Compound 1 (dosed as a [Compound 1:HCl:3H2O]) capsules administered orally in 30 mg, 75 mg, 150 mg, or 300 mg doses per day for 4 weeks.
# ApoAI, and ApoB were measured on the Selectra autoanalyzer (Sopachem BV, 44-RI Straat 33, 4051 AP Ochten, The Netherlands). All assays were commercially available from DiaSys Diagnostic Systems GmbH, Alte Strasse 9, 65558 Holzheim, Germany.
# RA patients [3] = assay: Plasma total cholesterol level (Selectra autoanalyzer), Study 4; conditions: for Total cholesterol level, 4 weeks CFB: 4 weeks change from baseline
# Method: as §1, §2
# Triglycerides, [HDL] cholesterol, and plasma cholesterol were measured on the Selectra autoanalyzer (Sopachem BV, 44-RI Straat 33, 4051 AP Ochten, The Netherlands). All assays were commercially available from DiaSys Diagnostic Systems GmbH, Alte Strasse 9, 65558 Holzheim, Germany. […]
smiles,measurement,setting,value
"O=C(Nc1nc2cccc(-c3ccc(CN4CCS(=O)(=O)CC4)cc3)n2n1)C1CC1 [Compound 1, cyclopropanecarboxylic acid {5-[4-(1,1-dioxo-thiomorpholin-4-ylmethyl)-phenyl]-[1,2,4]triazolo[1,5-a]pyridin-2yl}-amide]",CRP mean CFB (LOCF),RA patients [1]; week 1,-3.70 mg/L
same,CRP mean CFB (LOCF),RA patients [1]; week 12,-4.43 mg/L
same,"ApoA-I level, 4 weeks CFB",RA patients [2]; 30 mg q.d.,5.2%
same,"ApoA-I level, Baseline",RA patients [2]; 30 mg q.d.,148 mg/dL
same,"ApoA-I level, week 4",RA patients [2]; 30 mg q.d.,155 mg/dL
same,"ApoA-I level, 4 weeks CFB",RA patients [2]; 75 mg q.d.,9.8%
same,"ApoA-I level, Baseline",RA patients [2]; 75 mg q.d.,142 mg/dL
same,"ApoA-I level, week 4",RA patients [2]; 75 mg q.d.,156 mg/dL
same,"ApoA-I level, 4 weeks CFB",RA patients [2]; 150 mg q.d.,5.5%
same,"ApoA-I level, Baseline",RA patients [2]; 150 mg q.d.,140 mg/dL
same,"ApoA-I level, week 4",RA patients [2]; 150 mg q.d.,147 mg/dL
same,"ApoA-I level, 4 weeks CFB",RA patients [2]; 300 mg q.d.,27.9%
same,"ApoA-I level, Baseline",RA patients [2]; 300 mg q.d.,143 mg/dL
same,"ApoA-I level, week 4",RA patients [2]; 300 mg q.d.,179 mg/dL
same,"Total cholesterol level, 4 weeks CFB",RA patients [3]; 30 mg q.d.,25.9%
same,"Total cholesterol level, Baseline",RA patients [3]; 30 mg q.d.,4.9 mM
same,"Total cholesterol level, week 4",RA patients [3]; 30 mg q.d.,5.8 mM
same,"Total cholesterol level, 4 weeks CFB",RA patients [3]; 75 mg q.d.,5.2%
same,"Total cholesterol level, Baseline",RA patients [3]; 75 mg q.d.,4.9 mM
same,"Total cholesterol level, week 4",RA patients [3]; 75 mg q.d.,5.1 mM
same,"Total cholesterol level, 4 weeks CFB",RA patients [3]; 150 mg q.d.,−1.2%
same,"Total cholesterol level, Baseline",RA patients [3]; 150 mg q.d.,5 mM
same,"Total cholesterol level, week 4",RA patients [3]; 150 mg q.d.,5 mM
same,"Total cholesterol level, 4 weeks CFB",RA patients [3]; 300 mg q.d.,19.4%
same,"Total cholesterol level, Baseline",RA patients [3]; 300 mg q.d.,4.7 mM
same,"Total cholesterol level, week 4",RA patients [3]; 300 mg q.d.,5.7 mM
